{
  "source": "ChEMBL document CHEMBL1155576",
  "about": "“Bioactive carotanes from Trichoderma virens” (2000)",
  "format_in_all_cases": "functional",
  "key": {"Triticum aestivum [1]": {"test_system": "Triticum aestivum", "test": "Inhibition of etiolated wheat coleoptile growth at 10^-4 M relative to control"}, "Triticum aestivum [2]": {"test_system": "Triticum aestivum", "test": "Inhibition of etiolated wheat coleoptile growth at 10^-5 M relative to control"}, "Triticum aestivum [3]": {"test_system": "Triticum aestivum", "test": "Inhibition of etiolated wheat coleoptile growth at 10^-3 M relative to control"}},
  "note": "Activity calls are given as the source filed them. No cut-off for these calls is given here.",
  "data": [
    {"smiles": "CC(C)[C@@]1(O)[C@@H]2CC[C@@]3(C)O[C@H]3C[C@@]2(C)C[C@@H]1O", "note": "[TRICHOCARANE A]", "values": [
      {"measurement": "inhibition at 100 µM", "setting": "Triticum aestivum [1]", "value": 40, "unit": "%"}
    ]},
    {"smiles": "CC(C)[C@@]1(O)[C@@H]2CCC(CO)=CC[C@@]2(C)C[C@@H]1O", "note": "[TRICHOCARANE B]", "values": [
      {"measurement": "inhibition at 100 µM", "setting": "Triticum aestivum [1]", "value": 40, "unit": "%"},
      {"measurement": "inhibition at 10 µM", "setting": "Triticum aestivum [2]", "value": 19, "unit": "%"}
    ]},
    {"smiles": "CC(C)[C@@]1(O)[C@@H]2CCC(CO)CC[C@@]2(C)C[C@@H]1O", "note": "(some centres not stated) [TRICHOCARANE C]", "values": [
      {"measurement": "inhibition at 1000 µM", "setting": "Triticum aestivum [3]", "value": 86, "unit": "%"}
    ]},
    {"smiles": "CC(C)(O)[C@@]1(O)[C@@H]2CCC(CO)=CC[C@@]2(C)C[C@@H]1O", "values": [
      {"measurement": "Activity", "setting": "Triticum aestivum [3]", "value": "inactive"},
      {"measurement": "Activity", "setting": "Triticum aestivum [1]", "value": "inactive"},
      {"measurement": "Activity", "setting": "Triticum aestivum [2]", "value": "inactive"}
    ]}
  ]
}
